# Experimental data taken from ChEMBL document CHEMBL3639170, “Carboxy isatin hydrazones and their esters as Shp2 inhibitors” (2014).
# Biological target: T1, Tyrosine-protein phosphatase non-receptor type 11 (Homo sapiens, UniProt Q06124)
# T1 sequence (Q06124 whole entry): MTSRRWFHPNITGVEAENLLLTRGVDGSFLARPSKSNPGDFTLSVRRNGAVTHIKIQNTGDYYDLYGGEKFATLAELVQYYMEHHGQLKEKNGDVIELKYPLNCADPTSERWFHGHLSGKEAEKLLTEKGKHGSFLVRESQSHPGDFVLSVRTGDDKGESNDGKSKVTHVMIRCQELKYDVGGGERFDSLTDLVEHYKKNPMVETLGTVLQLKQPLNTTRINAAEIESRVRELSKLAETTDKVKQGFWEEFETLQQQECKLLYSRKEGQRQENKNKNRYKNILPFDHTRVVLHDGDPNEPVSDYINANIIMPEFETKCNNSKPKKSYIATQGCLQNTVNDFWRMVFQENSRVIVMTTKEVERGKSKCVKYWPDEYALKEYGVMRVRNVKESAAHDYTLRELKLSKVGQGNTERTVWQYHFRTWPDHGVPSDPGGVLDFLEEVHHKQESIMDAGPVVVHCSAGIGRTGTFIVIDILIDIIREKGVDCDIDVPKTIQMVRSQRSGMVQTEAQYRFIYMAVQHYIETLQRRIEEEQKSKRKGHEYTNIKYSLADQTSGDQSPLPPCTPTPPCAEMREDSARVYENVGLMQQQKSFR
# Assay: Inhibition Assay: In vitro Shp2 PTP activity inhibition assay for determination of IC50 was performed with a recombinant GST-Shp2 PTP domain protein using 6,8-difluoro-4-methylumbelliferyl phosphate (DiFMUP, Invitrogen) as the substrate similar to that described previously (Chen, et al., Discovery of a novel shp2 protein tyrosine phosphatase inhibitor. Mol Pharmacol 2006; 70:562-70).
compound,measurement,value
O=C(O)C(O)CC(=O)N1CCc2cc(S(=O)(=O)N3CCN(c4cccc(Cl)c4)CC3)ccc21 (stereo unspecified),IC50,8.2 µM
